Test results reported in patent US20110039762A1, “TARGETED ANTIMICROBIAL MOIETIES” (C3 JIAN, INC., priority 2009, published 2011).
Entries after “also recorded” stand apart in the source; their conditions may differ.

These substances were tested on microorganisms (e.g., bacteria, yeasts, fungi) (assay: Targeting peptide binding to target microorganisms (Table 3)). Conditions: microorganism the targeting peptide binds; binding in aqueous buffers varied by peptide solubility, preferably 1x PBS.
For “1T-268 (PITPKKEKCGLGTYAPKNPVFSKSRV; Peptide with targeting and/or antimicrobial activity) [Peptide 1T-268]”, the “Target(s)” value was “F. nucleatum; also recorded: S. mutans; also recorded: S. oralis; also recorded: S. sanguinis”. With “1T-201 (KRKHENVIVAEEMRVIKN; Peptide with targeting and/or antimicrobial activity) [Peptide 1T-201]” the “Target(s)” value was “S. sanguinis”. For “1T-122 (GAIPDPVTHRVDWEEDHQTRPSR; Peptide with targeting and/or antimicrobial activity) [Peptide 1T-122]”, the “Target(s)” value was “S. mitis”. “1T-45 (WTKPSFTDLRLGFEVTLYFANR; Peptide with targeting and/or antimicrobial activity) [Peptide 1T-45]” was tested, and the “Target(s)” value was “S. aureus; also recorded: S. epidermidis; also recorded: C. striatum; also recorded: P. aeruginosa”. With “1T-256 (KGKSLMPLLKQINQWGKLYL; Peptide with targeting and/or antimicrobial activity) [Peptide 1T-256]” the “Target(s)” value was “S. sanguinis”. With “1T-100 (LDPLEPRIAPPGDRSHQGAPACHRDPLRGRSARDAER; Peptide with targeting and/or antimicrobial activity) [Peptide 1T-100]” the “Target(s)” value was “S. gordonii; also recorded: S. mitis; also recorded: S. mutans”. For “1T-294 (YDKIADGVFKIGKRGVL; Peptide with targeting and/or antimicrobial activity) [Peptide 1T-294]”, the “Target(s)” value was “T. denticola”. In the case of “1T-109 (VTTNVRQGAGS; Peptide with targeting and/or antimicrobial activity) [Peptide 1T-109]”, the “Target(s)” value is reported as “A. naeslundii; also recorded: S. epidermidis; also recorded: S. gordonii; also recorded: S. mitis; also recorded: S. mutans; also recorded: S. oralis; also recorded: S. salivarious; also recorded: S. sanguinis”. For “1T-80 (GGNLGPGFGVIIP; Peptide with targeting and/or antimicrobial activity) [Peptide 1T-80]”, the “Target(s)” value was “S. pneumoniae”.

Same assay, conditions: microorganism(s) the targeting peptide binds; binding in aqueous buffers depending on peptide solubility, preferably 1x PBS
In the case of “PF-265 (MKTLFFPLFLIIFVLIIQALDQSYQKKIGISKPQKHPEFMQ; Peptide with targeting and/or antimicrobial activity)”, the “Target(s)” value is reported as “S. epidermidis; also recorded: M. luteus; also recorded: A. baumannii”. In the case of “PF-263 (NLKKCPC; Peptide with targeting and/or antimicrobial activity)”, the “Target(s)” value is reported as “S. epidermidis; also recorded: M. luteus; also recorded: A. baumannii”. For “PF-240 (RITEVPPDEHSDR; Peptide with targeting and/or antimicrobial activity)”, the “Target(s)” value was “S. mutans; also recorded: E. coli”. In the case of “HIKETR (Peptide with targeting and/or antimicrobial activity) [PF-222]”, the “Target(s)” value is reported as “S. epidermidis”. With “PF-223 (VKFCIECQTKLERKRR; Peptide with targeting and/or antimicrobial activity)” the “Target(s)” value was “S. epidermidis; also recorded: M. luteus; also recorded: A. baumannii”. “PF-228 (NQLGSQAFAQL; Peptide with targeting and/or antimicrobial activity)” was tested, and the “Target(s)” value was “S. mutans”. For “PF-364 (LVNGIKI; Peptide with targeting and/or antimicrobial activity)”, the “Target(s)” value was “S. epidermidis; also recorded: B. fragilis; also recorded: P. aeruginosa; also recorded: C. jeikeium; also recorded: C. jejuni”. For AIEGVIKKGACFKLLRHEMF [PF-167], the “Target(s)” value was “S. epidermidis and E. coli and C. albicans and MRSA and C. jeikeium and C. jejuni”. In the case of “PF-246 (QPDEKAEFFDPSLDKVYRHPTFYHIPDGIEHM; Peptide with targeting and/or antimicrobial activity)”, the “Target(s)” value is reported as “S. mutans”. With “PF-285 (VPAKLLRVIDEIPE; Peptide with targeting and/or antimicrobial activity)” the “Target(s)” value was “S. mutans”. For “PF-320 (DSGYYALLENKEERVVWDGEVVANNIFNNLWIVVNKVKTG; Peptide with targeting and/or antimicrobial activity)”, the “Target(s)” value was “S. mutans; also recorded: E. coli”. In the case of “PF-214 (GHLRVCWVFSASLLTPFRSATLI; Peptide with targeting and/or antimicrobial activity)”, the “Target(s)” value is reported as “S. mutans; also recorded: S. epidermidis; also recorded: M. luteus; also recorded: E. coli; also recorded: P. aeruginosa; also recorded: A. baumannii”. In the case of “PF-328 (NGNEKAFSEVENLVK; Peptide with targeting and/or antimicrobial activity)”, the “Target(s)” value is reported as “S. mutans”. With “PF-248 (ILSKLWFWMINSLGVVLLVSYWLLAKWGVA; Peptide with targeting and/or antimicrobial activity)” the “Target(s)” value was “S. mutans; also recorded: S. epidermidis; also recorded: M. luteus; also recorded: E. coli; also recorded: P. aeruginosa; also recorded: A. baumannii”.

Same assay, conditions: peptide binding in aqueous buffers varied by peptide solubility; preferably 1x PBS
In the case of “PF-701 (PRGAQSGHG; Peptide with targeting and/or antimicrobial activity)”, the “Target(s) (microorganisms bound by the targeting peptide)” value is reported as “S. mutans”. For “PF-716 (HGENHHHKSDEKDNDSSEKKD; Peptide with targeting and/or antimicrobial activity)”, the “Target(s) (microorganisms bound by the targeting peptide)” value was “S. mutans”. “PF-798 (ALHSKGIKVMADWVPDQMYA; Peptide with targeting and/or antimicrobial activity)” was tested, and the “Target(s) (microorganisms bound by the targeting peptide)” value was “S. mutans”. With “PF-781 (PLVVVNHRRAERSRG; Peptide with targeting and/or antimicrobial activity)” the “Target(s) (microorganisms bound by the targeting peptide)” value was “Mycobacteria spp”. With “PF-800 (WYYFDNNGYM; Peptide with targeting and/or antimicrobial activity)” the “Target(s) (microorganisms bound by the targeting peptide)” value was “S. mutans”. “PF-706 (LGYGAWIGCGLGLNGFHRID; Peptide with targeting and/or antimicrobial activity)” was tested, and the “Target(s) (microorganisms bound by the targeting peptide)” value was “L. pneumophila”. “PF-C273 (KNMLKRRMKQKRLFDEEDRLRVLSKYTKSYY; Peptide with targeting and/or antimicrobial activity)” was tested, and the “Target(s) (microorganisms bound by the targeting peptide)” value was “A. naeslundii; also recorded: P. gingivalis; also recorded: S. mutans; also recorded: T. denticola”. “PF-767 (DGKQGEPVALKPTDN; Peptide with targeting and/or antimicrobial activity)” was tested, and the “Target(s) (microorganisms bound by the targeting peptide)” value was “S. epidermidis and M. luteus and E. coli and MRSA and S. pneumoniae and E. faecalis and C. jeikeium”. In the case of “PF-C134 (NELMKYPATLTATATTPGIKYSHLCSVCL; Peptide with targeting and/or antimicrobial activity)”, the “Target(s) (microorganisms bound by the targeting peptide)” value is reported as “A. naeslundii; also recorded: F. nucleatum; also recorded: P. gingivalis; also recorded: S. mutans; also recorded: T. denticola”. In the case of “PF-669 (RADRIESYPADGDRVITLWRNPYR; Peptide with targeting and/or antimicrobial activity)”, the “Target(s) (microorganisms bound by the targeting peptide)” value is reported as “Mycobacteria spp”.
